This is an account of results in patent US20240342320A1, “POLYPEPTIDE TARGETING INTEGRIN ALPHA 6 AND USE THEREOF” (GUANGZHOU GENBIONOVA MEDICAL TECHNOLOGY CO., LTD., priority 2021, published 2024).

The structures appear in SMILES notation. Where two headings read alike, the source gives them in different places. Positions of bridges follow the written chain, without caps; N, C: chain ends. Non-standard residues stand in square brackets, D forms with d. Residues, ends and D or L forms follow the SMILES beside them. *: point of attachment. NOTA = O=C(O)CN1CCN(CC(=O)O)CCN(CC(=O)*)CC1; PEG4 = NCCOCCOCCOCCOCCC(=O)O

In assay [1] the target is T1, integrin α6β4 (Homo sapiens, UniProt P23229).
T1 sequence (P23229 24-1050 limits assumed): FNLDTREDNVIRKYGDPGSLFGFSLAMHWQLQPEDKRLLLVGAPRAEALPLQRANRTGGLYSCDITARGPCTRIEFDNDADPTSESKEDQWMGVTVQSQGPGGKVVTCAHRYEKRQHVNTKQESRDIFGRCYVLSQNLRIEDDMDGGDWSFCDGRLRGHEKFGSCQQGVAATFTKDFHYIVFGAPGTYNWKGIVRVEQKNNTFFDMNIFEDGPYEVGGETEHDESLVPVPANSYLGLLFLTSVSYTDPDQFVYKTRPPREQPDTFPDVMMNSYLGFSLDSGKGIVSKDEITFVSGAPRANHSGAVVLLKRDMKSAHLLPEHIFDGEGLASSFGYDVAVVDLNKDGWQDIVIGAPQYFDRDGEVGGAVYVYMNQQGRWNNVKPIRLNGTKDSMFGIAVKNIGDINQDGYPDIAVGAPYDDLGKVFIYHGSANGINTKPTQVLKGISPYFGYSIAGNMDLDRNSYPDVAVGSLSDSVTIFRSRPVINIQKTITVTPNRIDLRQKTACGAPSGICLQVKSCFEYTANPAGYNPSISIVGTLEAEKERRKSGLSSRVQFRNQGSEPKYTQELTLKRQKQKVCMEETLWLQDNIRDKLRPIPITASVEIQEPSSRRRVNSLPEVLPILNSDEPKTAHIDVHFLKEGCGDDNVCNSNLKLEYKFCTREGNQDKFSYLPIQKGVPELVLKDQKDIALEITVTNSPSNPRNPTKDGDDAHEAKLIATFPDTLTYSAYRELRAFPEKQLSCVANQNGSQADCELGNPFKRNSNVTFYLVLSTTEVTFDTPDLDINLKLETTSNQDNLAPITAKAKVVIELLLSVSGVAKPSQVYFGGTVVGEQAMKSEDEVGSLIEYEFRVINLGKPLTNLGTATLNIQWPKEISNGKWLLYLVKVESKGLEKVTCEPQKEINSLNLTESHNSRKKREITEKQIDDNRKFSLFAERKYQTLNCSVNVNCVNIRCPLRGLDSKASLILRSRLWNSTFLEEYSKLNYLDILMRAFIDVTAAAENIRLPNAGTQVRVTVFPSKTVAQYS
T1 sequence (P16144 28-710 partner limits assumed): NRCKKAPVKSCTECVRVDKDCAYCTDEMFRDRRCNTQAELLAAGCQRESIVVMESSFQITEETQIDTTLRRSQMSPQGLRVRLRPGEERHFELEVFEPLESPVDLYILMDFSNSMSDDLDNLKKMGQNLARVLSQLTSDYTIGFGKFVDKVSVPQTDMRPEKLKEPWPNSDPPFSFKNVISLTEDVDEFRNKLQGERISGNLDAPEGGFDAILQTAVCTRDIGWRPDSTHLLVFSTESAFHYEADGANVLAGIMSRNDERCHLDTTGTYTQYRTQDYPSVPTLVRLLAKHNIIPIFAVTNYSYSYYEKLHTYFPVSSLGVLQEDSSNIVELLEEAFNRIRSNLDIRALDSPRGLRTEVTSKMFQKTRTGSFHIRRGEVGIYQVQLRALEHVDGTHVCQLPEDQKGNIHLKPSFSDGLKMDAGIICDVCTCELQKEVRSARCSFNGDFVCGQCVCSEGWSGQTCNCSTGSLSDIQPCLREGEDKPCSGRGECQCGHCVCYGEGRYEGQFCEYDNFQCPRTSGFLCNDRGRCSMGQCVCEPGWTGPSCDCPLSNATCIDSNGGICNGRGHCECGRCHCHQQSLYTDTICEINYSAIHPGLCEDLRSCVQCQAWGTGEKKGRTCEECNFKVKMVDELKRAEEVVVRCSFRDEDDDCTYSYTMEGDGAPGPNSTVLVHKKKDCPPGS
Put plainly: Microscale thermophoresis (MST) affinity to integrin α6β4. The conditions noted are these: for Affinity relative to RWY: relative to CRWYDENAC (RWY) = 1.00. The format is binding. The procedure: (§1) The affinity between these 18 polypeptides and integrin α6β4 was detected by microscale thermophoresis (MST) method as follows: • 1) Integrin α6β4 protein was dissolved to 800 nM, and polypeptide was dissolved to 100 μM. • 2) A RED-tris-NTA second-generation dye was diluted to 100 nM by using the MO series RED-tris-NTA protein labeling kit. • 3) 100 μl α6β4 protein was mixed with 50 μl dye and incubated at room temperature for 30 min, so that the α6β4 protein binds to the dye. • 4) 10 μl polypeptide was transferred into a PCR tube, and was diluted with PBST (containing 0.05% Tween 20) at a ratio of 1:1 to 16 gradients of concentrations. • 5) 3 μl protein/dye mixture was transferred into a PCR tube, 3 μl of 16 different concentrations of polypeptides was respectively added and mixed well. • 6) The mixture was absorbed by capillary and loaded on machine (instrument model Monolith NT.115) to assay, parameters were set as 80% LED/excitation power and medium MST power. • 7) MO. Affinity Analysis software was used to calculate the equilibrium dissociation constant KD between α6β4 protein and polypeptide by KD fitting mode.

The target in assay [2] is T2, integrin α6β4 (Homo sapiens, UniProt P16144+P23229).
T2 sequence (P23229 24-1050 limits assumed): T1 sequence (P23229 24-1050 limits assumed)
T2 sequence (P16144 28-710 partner limits assumed): T1 sequence (P16144 28-710 partner limits assumed)
The description is as above. The format is binding. As to conditions: MST. How it is done: as §1

The mark [3] stands for this setting: integrin α6β4, determination 1, read-out: KD (um) 1.
The mark [4] stands for this setting: integrin α6β4, determination 2, read-out: KD (um) 2.
The mark [5] stands for this setting: integrin α6β4, determination 3, read-out: KD (um) 3.
The mark [6] stands for this setting: integrin α6β4, mean of 3, read-out: KD Mean value (μm).

The Kd is the concentration at which binding is half-saturated.

Take `C[C@@H]1NC(=O)[C@H](CC(N)=O)NC(=O)[C@H](CCC(=O)O)NC(=O)[C@H](CC(=O)O)NC(=O)[C@H](Cc2ccc(O)cc2)NC(=O)[C@H](Cc2c[nH]c3ccccc23)NC(=O)[C@H](CCCNC(=N)N)NC(=O)[C@@H](N)CSSC[C@@H](C(=O)O)NC1=O` [P1, CRWYDENAC] (H-CRWYDENAC-OH; disulfide 1-9; N-terminus and C-terminus assumed): the “Affinity relative to RWY” value on integrin α6β4 [1] came to 1.00. Moreover, the Kd at integrin α6β4 [2] (setting [3]) is 8.59 µM; on integrin α6β4 [2] (setting [4]), 6.52 µM; on integrin α6β4 [2] (setting [5]), 5.81 µM; at integrin α6β4 [2] (integrin α6β4, read-out: KD) it was 6.97 ± 1.44 µM.
Take `C[C@@H]1NC(=O)[C@H](CC(N)=O)NC(=O)[C@H](CCC(=O)O)NC(=O)[C@H](CC(=O)O)NC(=O)[C@H](Cc2ccc(O)cc2)NC(=O)[C@H](Cc2c[nH]c3ccccc23)NC(=O)[C@H](C)NC(=O)[C@@H](N)CSSC[C@@H](C(=O)O)NC1=O` [P2, CAWYDENAC] (H-CAWYDENAC-OH; disulfide 1-9; N-terminus and C-terminus assumed): at integrin α6β4 [1], the “Affinity relative to RWY” value was 1.06. For the same compound, the Kd at integrin α6β4 [2] (setting [3]) amounted to 4.03 µM; at integrin α6β4 [2] (setting [4]) it was 12.1 µM; on integrin α6β4 [2] (setting [5]), 3.58 µM; on integrin α6β4 [2] (setting [6]) it was 6.58 µM.
For the compound `C[C@@H]1NC(=O)[C@H](CC(N)=O)NC(=O)[C@H](CCC(=O)O)NC(=O)[C@H](CC(=O)O)NC(=O)[C@H](Cc2ccc(O)cc2)NC(=O)[C@H](C)NC(=O)[C@H](CCCNC(=N)N)NC(=O)[C@@H](N)CSSC[C@@H](C(=O)O)NC1=O` [P3, CRAYDENAC] (H-CRAYDENAC-OH; disulfide 1-9; N-terminus and C-terminus assumed), on integrin α6β4 [1], the “Affinity relative to RWY” value amounted to 0.52. Moreover, the Kd came to 14.4 µM on integrin α6β4 [2] (setting [3]), 11.8 µM at integrin α6β4 [2] (setting [4]), 13.8 µM on integrin α6β4 [2] (setting [5]) and 13.3 µM on integrin α6β4 [2] (setting [6]).
The like results for `C[C@@H]1NC(=O)[C@H](CC(N)=O)NC(=O)[C@H](CCC(=O)O)NC(=O)[C@H](C)NC(=O)[C@H](Cc2ccc(O)cc2)NC(=O)[C@H](Cc2c[nH]c3ccccc23)NC(=O)[C@H](CCCNC(=N)N)NC(=O)[C@@H](N)CSSC[C@@H](C(=O)O)NC1=O` [P5, CRWYAENAC] (H-CRWYAENAC-OH; disulfide 1-9; N-terminus and C-terminus assumed) were, in that order, 17.01, 0.36 µM, 0.22 µM, 0.65 µM and 0.41 µM.
The like results for `C[C@@H]1NC(=O)[C@H](CC(N)=O)NC(=O)[C@H](C)NC(=O)[C@H](CC(=O)O)NC(=O)[C@H](Cc2ccc(O)cc2)NC(=O)[C@H](Cc2c[nH]c3ccccc23)NC(=O)[C@H](CCCNC(=N)N)NC(=O)[C@@H](N)CSSC[C@@H](C(=O)O)NC1=O` [P6, CRWYDANAC] (H-CRWYDANAC-OH; disulfide 1-9; N-terminus and C-terminus assumed) were, in that order, 1.61, 1.21 µM, 7.99 µM, 3.83 µM and 4.34 µM.
Consider `C[C@@H]1NC(=O)[C@H](C)NC(=O)[C@H](CCC(=O)O)NC(=O)[C@H](CC(=O)O)NC(=O)[C@H](Cc2ccc(O)cc2)NC(=O)[C@H](Cc2c[nH]c3ccccc23)NC(=O)[C@H](CCCNC(=N)N)NC(=O)[C@@H](N)CSSC[C@@H](C(=O)O)NC1=O` [P7, CRWYDEAAC] (H-CRWYDEAAC-OH; disulfide 1-9; N-terminus and C-terminus assumed), for which the “Affinity relative to RWY” value at integrin α6β4 [1] is 11.19. Further, the Kd on integrin α6β4 [2] (setting [3]) turned out to be 0.25 µM; at integrin α6β4 [2] (setting [4]) it was 0.25 µM; on integrin α6β4 [2] (setting [5]), 1.37 µM; at integrin α6β4 [2] (setting [6]) it was 0.62 µM.
Take `N=C(N)NCCC[C@H](N)C(=O)N[C@@H](Cc1c[nH]c2ccccc12)C(=O)N[C@@H](Cc1ccc(O)cc1)C(=O)N[C@@H](CC(=O)O)C(=O)N[C@@H](CCC(=O)O)C(=O)N[C@@H](CC(N)=O)C(=O)O` [P9, RWYDEN] (H-RWYDEN-OH; N-terminus and C-terminus assumed): the “Affinity relative to RWY” value on integrin α6β4 [1] turned out to be 0.66. Moreover, the Kd at integrin α6β4 [2] (setting [3]) was 9.69 µM; at integrin α6β4 [2] (setting [4]), 8.73 µM; on integrin α6β4 [2] (setting [5]), 13.1 µM; on integrin α6β4 [2] (setting [6]), 10.5 µM.
`C[C@H](NC(=O)[C@H](CC(N)=O)NC(=O)[C@H](C)NC(=O)[C@H](CC(=O)O)NC(=O)[C@H](Cc1ccc(O)cc1)NC(=O)[C@H](Cc1c[nH]c2ccccc12)NC(=O)[C@@H](N)CCCNC(=N)N)C(=O)O` [P10, RWYDANA] (H-RWYDANA-OH; N-terminus and C-terminus assumed): the “Affinity relative to RWY” value at integrin α6β4 [1] amounted to 0.23. Moreover, the Kd worked out at 62.1 µM at integrin α6β4 [2] (setting [3]), 17.5 µM at integrin α6β4 [2] (setting [4]), 12.4 µM on integrin α6β4 [2] (setting [5]) and 30.6 µM at integrin α6β4 [2] (setting [6]).
As to `C[C@H](NC(=O)[C@H](CC(=O)O)NC(=O)[C@H](Cc1ccc(O)cc1)NC(=O)[C@H](Cc1c[nH]c2ccccc12)NC(=O)[C@@H](N)CCCNC(=N)N)C(=O)N[C@@H](CC(N)=O)C(=O)O` [P11, RWYDAN] (H-RWYDAN-OH; N-terminus and C-terminus assumed), the “Affinity relative to RWY” value at integrin α6β4 [1] turned out to be 0.22. Further, the Kd on integrin α6β4 [2] (setting [3]) was found to be 34.6 µM; on integrin α6β4 [2] (setting [4]), 23.2 µM; on integrin α6β4 [2] (setting [5]), 35.7 µM; on integrin α6β4 [2] (setting [6]), 31.2 µM.
Take `C[C@H](NC(=O)[C@H](CCC(=O)O)NC(=O)[C@H](CC(=O)O)NC(=O)[C@H](Cc1ccc(O)cc1)NC(=O)[C@H](Cc1c[nH]c2ccccc12)NC(=O)[C@@H](N)CCCNC(=N)N)C(=O)O` [P12, RWYDEA] (H-RWYDEA-OH; N-terminus and C-terminus assumed): the “Affinity relative to RWY” value at integrin α6β4 [1] is on record as 2.20. In addition, the Kd was 5.26 µM at integrin α6β4 [2] (setting [3]), 2.49 µM on integrin α6β4 [2] (setting [4]), 1.74 µM at integrin α6β4 [2] (setting [5]) and 3.16 µM on integrin α6β4 [2] (setting [6]).
The like results for `N=C(N)NCCC[C@H](N)C(=O)N[C@@H](Cc1c[nH]c2ccccc12)C(=O)N[C@@H](Cc1ccc(O)cc1)C(=O)N[C@@H](CC(=O)O)C(=O)N[C@@H](CCC(=O)O)C(=O)O` [P13, RWYDE] (H-RWYDE-OH; N-terminus and C-terminus assumed) were, in that order, 0.11, 14.7 µM, 78.8 µM, 99.6 µM and 64.4 µM.
With `N=C(N)NCCC[C@H](N)C(=O)N[C@@H](Cc1c[nH]c2ccccc12)C(=O)N[C@@H](Cc1ccc(O)cc1)C(=O)N[C@@H](CC(=O)O)C(=O)NCCOCCOCCOCCOCCC(=O)N[C@@H](CCCCNC(=O)CN1CCN(CC(=O)O)CCN(CC(=O)O)CC1)C(=O)O` [RWYD-PEG4-K-NOTA] (H-RWYD[PEG4]K(NOTA)-OH), binding on integrin α6β4 [1] (MST, integrin α6β4) was put at a Kd of 0.642 ± 0.261 µM.
